Assay results as given in patent publication US6281352.
Read-outs that look alike come from different tables or passages of the source.

## CNC(=O)[C@@H]1CCCCN(S(=O)(=O)c2c(C)cc(C)cc2C)CCC[C@H](C(=O)OC(C)(C)C)[C@@H](CC(C)C)C(=O)N1
From CNC(=O)[C@H](CCCCNS(=O)(=O)c1c(C)cc(C)cc1C)NC(=O)[C@H](CC(C)C)[C@H](CCCO)C(=O)OC(C)(C)C, amine bond, PPh3/DIAD, THF, 21.5 mM, 16.0 h, 2 steps
  ring closure, yield of all isomers: 30%

## CNC(=O)[C@@H]1CCCCN(S(=O)(=O)c2ccc([N+](=O)[O-])cc2)CCC[C@H](C(=O)OC(C)(C)C)[C@@H](CC(C)C)C(=O)N1
From CNC(=O)[C@H](CCCCNS(=O)(=O)c1ccc([N+](=O)[O-])cc1)NC(=O)[C@H](CC(C)C)[C@H](CCCO)C(=O)OC(C)(C)C, amine bond, PPh3/DIAD, THF, 24.7 mM
  ring closure, yield of all isomers: 26%

## COC(=O)[C@@H]1Cc2ccc(cc2)OCCC[C@H](C(=O)OC(C)(C)C)[C@@H](CC(C)C)C(=O)N1
From COC(=O)[C@H](Cc1ccc(O)cc1)NC(=O)[C@H](CC(C)C)[C@H](CCCBr)C(=O)OC(C)(C)C, ether bond, Cs2CO3, DMF, 32.8 mM, 80.0 °C, 0.75 h
  ring closure, yield of all isomers: 74%

## CNC(=O)[C@@H]1CCCCNC(=O)CC[C@H](C(=O)OC(C)(C)C)N[C@@H](CCc2ccccc2)C(=O)N1
From CNC(=O)[C@@H](N)CCCCNC(=O)CC[C@@H](N[C@@H](CCc1ccccc1)C(=O)O)C(=O)OC(C)(C)C, amide bond, BOP, DMF, 24.0 h
  ring closure, yield of all isomers: 16%

## CNC(=O)[C@@H]1CCCCN(S(=O)(=O)c2cn(C)cn2)CCC[C@H](C(=O)OC(C)(C)C)[C@@H](CC(C)C)C(=O)N1
From CNC(=O)[C@H](CCCCNS(=O)(=O)c1cn(C)cn1)NC(=O)[C@H](CC(C)C)[C@H](CCCO)C(=O)OC(C)(C)C, amine bond, PPh3/DIAD, THF, 17.1 mM, 16.0 h
  ring closure, yield of all isomers: 52%

## C=C1CO[C@H](COCc2ccccc2)[C@@H](C/C=C/c2ccccc2)C(=O)N[C@H](C(=O)NC)CCCN(C(C)=O)C1
From C=C(CBr)CO[C@H](COCc1ccccc1)[C@@H](C/C=C/c1ccccc1)C(=O)N[C@@H](CCCN)C(=O)NC, amine bond, diisopropylethylamine, acetonitrile, 2.1 mM, 3 steps
  ring closure, yield of all isomers: 76%

## CNC(=O)[C@@H]1CCCCN(S(=O)(=O)C(F)(F)F)CCC[C@H](C(=O)OC(C)(C)C)[C@@H](CC(C)C)C(=O)N1
From CNC(=O)[C@H](CCCCNS(=O)(=O)C(F)(F)F)NC(=O)[C@H](CC(C)C)[C@H](CCCO)C(=O)OC(C)(C)C, amine bond, DIAD/PPh3, THF, 15.6 mM, 16.0 h, 2 steps
  ring closure, yield of all isomers: 52%

## CNC(=O)[C@@H]1CCCCNC(=O)C[C@H](C(=O)OC(C)(C)C)N[C@@H](CCc2ccccc2)C(=O)N1
From CNC(=O)[C@@H](N)CCCCNC(=O)C[C@@H](N[C@@H](CCc1ccccc1)C(=O)O)C(=O)OC(C)(C)C, amide bond, BOP, DMF, 24.0 h, 2 steps
  ring closure, yield of all isomers: 30%

## CNC(=O)[C@@H]1CCC(=O)OCCC[C@H](C(=O)OC(C)(C)C)[C@@H](CC(C)C)C(=O)N1
From CNC(=O)[C@H](CCC(=O)O)NC(=O)[C@H](CC(C)C)[C@H](CCCO)C(=O)OC(C)(C)C, ester bond, PPh3/DIAD, THF, 9.4 mM, 16.0 h, 2 steps
  ring closure, yield of all isomers: 24%

## COC(=O)[C@@H]1CCCc2ccc(cc2)OCCC[C@H](C(=O)OC(C)(C)C)[C@@H](CC(C)C)C(=O)N1
From COC(=O)[C@H](CCCc1ccc(O)cc1)NC(=O)[C@H](CC(C)C)[C@H](CCCBr)C(=O)OC(C)(C)C, ether bond, Cs2CO3, DMF, 8.7 mM, 0.0 °C, 2.0 h
  ring closure, yield of all isomers: 32%
